Series [1] in a line: toxicity of 14-day continuous intravenous infusion in monkeys. The series is classed as in vivo. Particulars: 14-day CIV. As to the method:
(§1) Cynomolgus monkeys received continuous IV infusion over 14 days of Formula I at 5 mg/kg/day, 15 mg/kg/day, or 30 mg/kg/day. The drug was infused intravenously (24 hours/day) into the femoral vein at a dose rate of 2 ml/kg/hour for 14 consecutive days. Blood samples were removed from each monkey on Days 1, 2, 6, 10, and 15 of the treatment period. Monkeys were bled by venipuncture and samples were collected into tubes containing K2EDTA. On Day 1, samples were collected at 2, 6, and 12 hours after initiation of treatment. Additional samples were collected at 30 hours after the start of infusion (Day 2). On Days 6 and 10, samples were collected at approximately 6 hours after the bag changes. At the end of the 14 days of infusion, on Day 15, samples were collected at 1 hour prior to cessation of dose administration, and at 5 min, 30 min, 1 h, 2 h, 4 h, 8 h, and 24 h following cessation of dose administration.

Series [2] has as its system P388 murine leukemia cells. Kind of series: murine P388 leukemia model, survival. The series is classed as in vivo. Particulars: group 2, IV 50 mg/kg in PEG-PG formulation, 10 mice per group. The procedure: Formulation: The compound of Formula I is first dissolved in 1 volume of 90% propylene glycol (PG). This is followed by the addition of 2 volumes of 45% polyethylene glycol 400 (PEG 400). The volume ratio of PEG 400/PG/water is respectively 30:30:40. Compound is injected in a volume of 10 mL/kg.
DBA/2 female mice (6 weeks of age) were injected intraperitoneally (IP) with 1×10^6 P388 murine leukemia cells (day 0). […]
Mice body weights were recorded twice a week. Lethality and behaviour of animals were recorded every day. […] The results are expressed as percent of mean survival time of treated animals over the mean survival time of the control group (treated vs control, T/C %) and as increase life span (mean survival time of treated animals minus that of control animals over the mean survival time of the control group; ILS %).

The nature of series [3]: pharmacokinetics of 14-day CIV infusion in monkeys. Type of series: in vivo, Cynomolgus monkeys. Particulars: for T1/2z: calculated at the end of treatment, mean. As to the method:
as §1

A short description of series [4]: population pharmacokinetic analysis, rat (IV + CIV). Type of series: in vivo. Particulars: population PK. As to the method: (§2) An analysis was performed to derive allometric equations for Formula I pharmacokinetic parameters using Formula I plasma concentration-time data from three species, including mouse, rat, and monkey, and to estimate human pharmacokinetic parameters from those allometric equations.
(§3) Plasma concentrations of Formula I were obtained from mice, rats, and monkeys following intravenous injection or continuous infusion. Formula I pharmacokinetic parameters in mice, rats, and monkeys were estimated using population pharmacokinetic analysis, a function of the software program NONMEM™ (version 5). Typical population pharmacokinetic parameters for Formula I in humans were extrapolated from allometric equations that were derived from pharmacokinetic parameters estimated in the three animal species.
A two-compartment model with a first-order elimination from the central compartment adequately described Formula I plasma concentration-time profiles following intravenous bolus injection (30 mg/kg) in mice and rats, 7-day continuous infusion in rats (50 to 170 mg/kg/day), and 14-day continuous infusion in monkeys (5 to 30 mg/kg/day).

A short description of series [5]: maximum tolerated dose and tolerability of bolus administration in mice. Type of series: in vivo.
Series [6] can be described thus: human pharmacokinetic parameters extrapolated from allometric equations. Particulars: estimated from allometric equations. The procedure:
as §2, §3
Allometric equations for the pharmacokinetic parameters clearance (CL), volume of distribution (V1 and V2), and inter-compartmental clearance (Q) were derived. The population PK parameters of the compound of Formula I for humans were extrapolated from the allometric equations, and the estimated values are shown in Table 6. Simulated Formula I plasma concentration-time profiles in humans are shown in FIG. 13 and estimated end of infusion concentrations are provided in Table 7.

`CC(C)=CCC/C(C)=C/CC/C(C)=C/CN1C(=O)c2cccc(O)c2Nc2c(O)cc(O)cc21` [Formula I, 10-farnesyl-4,6,8-trihydroxy-dibenzodiazepin-11-one]: in series [1], the “degenerative changes in organs, including the infusion site” value is recorded as “No degenerative changes”; the “effect on body weight, ocular condition, electrocardiographic activity and other parameters” value was “no effect”; the side effects result is “inappetance and a moderate degree of regenerative anemia, were reversible”. Moreover, the compound associated toxicity entry in series [1] (5 to 30 mg/kg/day) is given as “no severe compound associated toxicity”. The “mice died one day after treatment due to formulation toxicity” value in series [2] is on record as 3 mice. The “fold increase in AUC between groups” value in series [3] (15 mg/kg/day versus 5 mg/kg/day) worked out at 3.4 fold. Further, the “fold increase in AUC between groups” value in series [3] (30 mg/kg/day versus 15 mg/kg/day) came to 4.7 fold. Also, in series [3] (CIV 5 mg/kg/day), the T1/2z is reported as 12 h. Moreover, the T1/2z in series [3] (CIV 15 mg/kg/day) is on record as 8.3 h. Moreover, the T1/2z in series [3] (CIV 30 mg/kg/day) is given as 8.1 h. In addition, the concentration at 14 days in series [3] (cynomolgus monkey, plasma, 14-day IV continuous infusion, read-out: stable plasma concentrations above the therapeutic threshold) is over 2000 nM. Also, the Ke in series [4] amounted to 8.651 h⁻¹. Further, the tolerability finding result in series [5] (IP bolus dosing) was “some intestinal occlusion”. Also, the tolerability finding result in series [5] (SC bolus dosing) is “swelling and thickening of the skin”. Moreover, in series [6], the Ke is 1.192 h⁻¹, the Q is 0.533 mL/min/kg, the “t1/2,α” value is 0.509 h and the “t1/2,β” value was 13.8 h.

The record behind these values is US7763604B2, “Methods for administration of a farnesyl dibenzodiazepinone” (Thallion Pharma Ceuticals, Inc., priority 2005, dated 2010).
